These results are taken from PubChem BioAssay (NCI).

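48-hour exposure; five concentrations; linearly interpolated endpoints. The concentration for full growth arrest is given as TGI.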 Some results are limits rather than exact numbers.

Common to all, as to assay: inhibition of tumour cell growth, NCI panel, 48 h
In experiment [1] the test system is HCC-2998 colon.
Experiment [2] has as its system IGROV1 ovarian.
Experiment [3] has as its system EKVX NSCLC.
The test system of experiment [4] is T-47D breast.
Experiment [5] has as its system SNB-75 CNS.
Experiment [6] deals with MCF7 breast.
Experiment [7] relates to NCI-H522 lung.
In experiment [8] the test system is ACHN renal.
Experiment [9] has as its system MDA-N.
Experiment [10] relates to OVCAR-4 ovarian.
Experiment [11] relates to HCT-15 colon.

On to `CSc1ncnc2c1ncn2C1CC(Oc2ccc(C)cc2)C(COc2ccc(C)cc2)O1` (stereo unspecified), for which the TGI in experiment [1], in experiment [2], in experiment [3], in [4], in experiment [5] and in experiment [6] was more than 100 µM each time. Moreover, the TGI in [7], in [8], in experiment [9], in experiment [10] and in [11] was more than 100 µM in each case.
For `O=c1cc(-c2ccc(F)cc2)[nH]c2ncc(Cl)cc12`, the TGI in [1] is more than 100 µM; in experiment [2], more than 100 µM; in experiment [3], more than 100 µM; in experiment [4] it was more than 100 µM; in experiment [5], 48.7 µM; in experiment [6], more than 100 µM. Moreover, the TGI in experiment [7] is 80.4 µM; in experiment [8], more than 100 µM; in experiment [9], 7.91 µM; in [10] it was more than 100 µM; in [11] it was more than 100 µM.
`Oc1ccc(-c2nc(-c3cccnc3)c(-c3ccc(Cl)cc3)[nH]2)cc1`: the TGI came to 33.1 µM in experiment [1]; 23 µM in [2]; 27.4 µM in experiment [3]; 28.6 µM in [4]; 19.9 µM in experiment [5]; 24.7 µM in experiment [6]. Further, the TGI in experiment [7] stood at 23.8 µM; in [8], 27.6 µM; in experiment [9] it was 26.3 µM; in experiment [10], 23.3 µM; in [11] it was 25.2 µM.
As to `O=C(NNC(=S)Nc1cccc(Cl)c1)c1cc(-c2ccccc2)nc2ccccc12`, the TGI in experiment [1] came to 28.2 µM; in [2], 47 µM; in experiment [4], 36.4 µM; in [5] it was 66.5 µM; in experiment [6], 23 µM; in experiment [7], 34.9 µM. The TGI was determined as 31.8 µM in [8], 36.5 µM in experiment [9], 28.7 µM in [10] and 29.6 µM in experiment [11].
For the molecule `CCOC(=O)c1cc(C(O)P2(=O)N(CC(C)(C)C)[C@@H]3CCCC[C@H]3N2CC(C)(C)C)cn1C(=O)OC(C)(C)C` (stereo partly specified), the TGI was 29.7 µM in experiment [1]; 18.1 µM in experiment [2]; 55.6 µM in experiment [3]; more than 100 µM in experiment [4]; 51 µM in experiment [6]; 31.1 µM in [7]. Further, the TGI was more than 100 µM in experiment [8], 28 µM in experiment [9], 77.7 µM in experiment [10] and 36 µM in experiment [11].
As for `CC(C)(C)OC(=O)NC(Cc1ccc(OCc2ccccc2)cn1)C(=O)N1CCCCC1` (stereo unspecified), the TGI in experiment [1] is more than 100 µM; in [2] it was more than 100 µM; in [3] it was more than 100 µM; in experiment [4] it was 33.9 µM; in experiment [5] it was 70.3 µM; in experiment [6] it was more than 100 µM. In addition, the TGI in [7], in [8], in experiment [9] and in experiment [11] was more than 100 µM throughout.
For `C=CC(CCc1ccc(C(=O)OCC)cc1)c1c(N)nc(N)[nH]c1=O` (stereo unspecified), the TGI in [1], in experiment [2], in experiment [4], in experiment [5], in experiment [6] and in experiment [9] was more than 100 µM throughout. Further, the TGI in experiment [10] and in experiment [11] was more than 100 µM in each case.
Regarding `CN1CCC(O)(C(C)(C)C)CC1`, the TGI in [1], in experiment [2], in experiment [3], in [4], in experiment [5] and in experiment [6] was more than 100 µM throughout. In addition, the TGI in experiment [8], in [9], in experiment [10] and in [11] was more than 100 µM in each case.
Regarding `Cc1nc(-c2cc3cc([N+](=O)[O-])ccc3oc2=O)cs1`, the TGI was more than 100 µM in experiment [1]; more than 100 µM in experiment [2]; more than 100 µM in [3]; more than 100 µM in experiment [4]; 94.8 µM in [5]; more than 100 µM in experiment [6]. Moreover, the TGI in experiment [8], in [9], in experiment [10] and in experiment [11] was more than 100 µM each time.
On to `O=Cc1ccc2c(c1)CC1(Cc3ccccc3C1)C2`, for which the TGI in [1] was more than 100 µM; in [2] it was 46.1 µM; in [3] it was more than 100 µM; in [4], more than 100 µM; in experiment [6], 66.4 µM; in [7], more than 100 µM. Also, the TGI worked out at 65.7 µM in experiment [8], 38.9 µM in experiment [9], 48.7 µM in [10] and 73.4 µM in [11].
With `O=C1C(CN2CCCCC2)CCC1CN1CCCCC1` (stereo unspecified), the TGI in experiment [1] was more than 62.5 µM; in experiment [2] it was 49.7 µM; in [3] it was more than 100 µM; in experiment [4], 36.5 µM; in experiment [5] it was more than 75.6 µM; in experiment [6], 43 µM. Moreover, the TGI amounted to 11.1 µM in [7], 47.5 µM in experiment [8], 22.2 µM in experiment [9] and 47.4 µM in experiment [11].
On to `CC1=NNC(N)=N/C1=C\C(Sc1ccc(Cl)cc1)c1ccc([N+](=O)[O-])cc1` (stereo unspecified), for which the TGI in experiment [1], in [2], in [3], in [4], in experiment [6] and in [7] was more than 100 µM throughout. In addition, the TGI in experiment [8], in experiment [9], in [10] and in experiment [11] was more than 100 µM in each case.
In the case of `COc1cc(/C=C2/C[C@H]3[C@@H]4CC=C5C[C@@H](O)CC[C@]5(C)[C@H]4CC[C@]3(C)NC2=O)cc(OC)c1OC`, the TGI is 25.8 µM in experiment [1]; 38.1 µM in [2]; more than 92.8 µM in experiment [3]; more than 100 µM in experiment [4]; more than 77.5 µM in experiment [6]; 21.7 µM in experiment [7]. The TGI in [8] was 58 µM; in experiment [9], more than 100 µM; in experiment [10], more than 86.5 µM; in [11], more than 59.5 µM.
